Experimental data reported in patent publication US8772277B2, “Nitrogen-containing heterocyclic compound” (Takeda Pharmaceutical Company Limited, priority 2011, dated 2014).
Where a name gives a salt, the structure may show the parent alone.

How the values were obtained:
[1] = molecular target: T1, GST-ERR-α ligand-binding domain (Homo sapiens, UniProt P11474); experiment: HTRF assay system using ERR-α ligand-binding domain (inverse agonist activity, biotinylated SRC-1 (676-700) peptide); format: biochemical; conditions: compound final concentration 30 μM, 665/620 ratio, no compound = 0%, 10 μM XCT-790 = 100%; for inhibition at 30 µM: read-out: inhibition rate (%) at 30 μM
T1 sequence (P11474 193-421 limits assumed): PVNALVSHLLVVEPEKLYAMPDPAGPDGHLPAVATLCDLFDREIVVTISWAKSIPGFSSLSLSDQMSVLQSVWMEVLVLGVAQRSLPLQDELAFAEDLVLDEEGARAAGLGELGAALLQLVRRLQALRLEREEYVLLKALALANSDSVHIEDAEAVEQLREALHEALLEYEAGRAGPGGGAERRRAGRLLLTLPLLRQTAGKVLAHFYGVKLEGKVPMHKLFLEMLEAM
Procedure: Experimental Example 1 Compound Evaluation in HTRF Assay System Using ERR-α Ligand-Binding Domain
An assay buffer (25 mM HEPES, 100 mM NaCl, 1 mM DTT, 0.1% BSA) containing 5 nM GST-ERR-α ligand-binding domain (final concentration 1.25 nM) was added to a 384 well plate, then 40 μM N-[5-(trifluoromethyl)-1,3,4-thiadiazol-2-yl]-2-cyano-3-[3-methoxy-4-[2,4-di(trifluoromethyl)benzyloxy]phenyl]propenamide (XCT-790) (final concentration 10 μM), or 120 μM compound (final concentration 30 μM) was added. Furthermore, an assay buffer containing XL665 conjugated Streptavidin, Eu^3+ criptate conjugated GST antibody and 200 nM biotinylated SRC-1 (676-700) (final concentration 100 nM) was added, and the mixture was reacted at room temperature for 2 hr. Using Multiplate reader Envision (Perkin Elmer Inc.), after excitation at 320 nm, fluorescence values at 620 nm and 665 nm were measured. The inverse agonist activity of the compound was calculated in percentage with the 665/620 ratio value inhibited by no addition of compound as 0%, and with addition of final concentration 10 μM of XCT-790 as 100%.

MDA-MB-231-luc cells = experiment: Antitumor test using MDA-MB-231-luc cells (subcutaneous transplant); format: in vivo, Balb/c nu/nu mice; conditions: change in tumor volume, vehicle group = 100%
Procedure: Experimental Example 3 Antitumor Test using MDA-MB-231-luc Cells
6-Week-old Balb/c nu/nu mice were transplanted subcutaneously with 5×10^6 cells/100 μL, and the mice were grouped according to the body weight and tumor volume after 1 to 2 weeks. Vehicle (0.5% MC) or a compound was administered orally to mice (6 mice per group). The administration was twice per day and performed continuously during the dosing period. Setting the change in tumor volume of the vehicle-treated group as 100%, the change rate in tumor volume of the compound-treated group (□/C %) was calculated.

[2] = molecular target: T2, fusion protein containing GAL4-DNA-binding domain and ERR full-length (Homo sapiens, UniProt P11474); experiment: Reporter assay system using 293T cells (GAL4-ERR luciferase, inverse agonist activity); format: cell-based; conditions: compound final concentration 3 μM, no compound = 0%, 10 μM XCT-790 = 100%; for inhibition at 3 µM: HEK-293T, read-out: inhibition rate (%) at 3 μM
T2 construct: expressed in transfected cells; host or cells: 293T cells
T2 sequence (P11474 1-423): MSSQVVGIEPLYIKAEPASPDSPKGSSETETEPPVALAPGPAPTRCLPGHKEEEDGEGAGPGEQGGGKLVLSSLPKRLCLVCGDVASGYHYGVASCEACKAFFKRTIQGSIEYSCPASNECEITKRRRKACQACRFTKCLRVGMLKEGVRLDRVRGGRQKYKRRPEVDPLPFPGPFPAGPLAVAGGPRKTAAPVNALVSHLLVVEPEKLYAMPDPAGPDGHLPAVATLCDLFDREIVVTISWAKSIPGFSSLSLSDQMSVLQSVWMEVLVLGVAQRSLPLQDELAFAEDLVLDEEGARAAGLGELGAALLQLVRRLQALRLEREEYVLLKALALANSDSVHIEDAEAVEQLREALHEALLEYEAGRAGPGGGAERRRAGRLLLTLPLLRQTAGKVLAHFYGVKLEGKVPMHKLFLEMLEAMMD
Procedure: Experimental Example 2 Compound Evaluation in Reporter Assay System Using 293T Cells
293T cells derived from human kidney were seeded in a 150 cm^2 flask by 6,000,000 cells, and cultured in a medium (DMEM medium containing 10% inactivated Fetal Bovine Serum sterile filtered (FBS), […] Gentamicin, 10 mM HEPES buffer (pH 7.4)) at 37° C. in the presence of 5% CO2 for 1 day.
Then, vector DNA having a gene encoding a fusion protein, containing GAL4-DNA-binding domain and ERR full-length and a vector DNA wherein luciferase gene is fused at the downstream of GAL4-binding-sequence were cotransfected by a lipofection method, and the cells were cultured at 37° C. in the presence of 5% CO2 for 1 day. The cells were recovered, sown in a 384 well plate by 15,000 cells, and cultured at 37° C. in the presence of 5% CO2 for 3 hrs. Furthermore, 50 μM N-[5-(trifluoromethyl)-1,3,4-thiadiazol-2-yl]-2-cyano-3-[3-methoxy-4-[2,4-di(trifluoromethyl)benzyloxy]phenyl]propenamide (XCT-790) (final concentration 10 μM) or 15 μM compound (final concentration 3 μM) was added, and the cells were cultured at 37° C. in the presence of 5% CO2 for 1 day. The luciferase activity was measured by using multiplate reader Envision (Perkin Elmer Inc.). The inverse agonist activity of the compound was calculated in percentage with the luciferase activity inhibited by no addition of compound as 0%, and with addition of final concentration 10 μM of XCT-790 as 100%.

[3] = 50 mg/kg orally twice per day, dosing period 14 days

Compound	inhibition at 30 µM [1]	inhibition at 3 µM [2]	also measured
C#CCNC1=NC(=O)S/C1=C\C1CCN(Cc2ccc(C(F)(F)F)cc2C(F)(F)F)CC1 [Example 10, (5Z)-5-({1-[2,4-bis(trifluoromethyl)benzyl]piperidin-4-yl}methylidene)-4-(prop-2-yn-1-ylamino)-1,3-thiazol-2(5H)-one fumarate]	–	–	inhibition rate (%) at 30 μM ([1]; fumarate): 102%; T/C (%) (MDA-MB-231-luc cells; 60 mg/kg orally twice per day, dosing period 15 days): 15%; inhibition rate (%) at 3 μM ([2]; fumarate): 93%
O=C1N=C(NCCOCCO)/C(=C/C2CCN(Cc3ccc(C(F)(F)F)cc3C(F)(F)F)CC2)S1 [Example 195, (5Z)-5-({1-[2,4-bis(trifluoromethyl)benzyl]piperidin-4-yl}methylidene)-4-{[2-(2-hydroxyethoxy)ethyl]amino}-1,3-thiazol-2(5H)-one hydrochloride]	–	–	inhibition rate (%) at 30 μM ([1]; hydrochloride): 102%; T/C (%) (MDA-MB-231-luc cells; 50 mg/kg orally twice per day, dosing period 17 days): 56%; inhibition rate (%) at 3 μM ([2]; hydrochloride): 90%
CC(C)(O)CNC1=NC(=O)S/C1=C\C1CCN(Cc2ccc(C(F)(F)F)cc2C(F)(F)F)CC1 [Example 17, (5Z)-5-({1-[2,4-bis(trifluoromethyl)benzyl]piperidin-4-yl}methylidene)-4-[(2-hydroxy-2-methylpropyl)amino]-1,3-thiazol-2(5H)-one fumarate]	106%	97%	T/C (%) (MDA-MB-231-luc cells; 50 mg/kg orally twice per day, dosing period 15 days): 40%
C#CCNC1=NC(=O)S/C1=C\C1CCN(Cc2ccc(C(F)(F)F)cc2C(F)(F)F)CC1 [Example 7, (5Z)-5-({1-[2,4-bis(trifluoromethyl)benzyl]piperidin-4-yl}methylidene)-4-(prop-2-yn-1-ylamino)-1,3-thiazol-2(5H)-one]	–	–	inhibition rate (%) at 30 μM [1]: 100%; T/C (%) (MDA-MB-231-luc cells; [3]): 24%; inhibition rate (%) at 3 μM [2]: 87%
O=C1N=C(NCCOCCO)/C(=C/C2CCN(Cc3ccc(C(F)(F)F)cc3C(F)(F)F)CC2)S1 [Example 13, (5Z)-5-({1-[2,4-bis(trifluoromethyl)benzyl]piperidin-4-yl}methylidene)-4-{[2-(2-hydroxyethoxy)ethyl]amino}-1,3-thiazol-2(5H)-one ditoluenesulfonate]	105%	89%	T/C (%) (MDA-MB-231-luc cells; 100 mg/kg orally twice per day, dosing period 15 days): 20%
CN(C)C(=O)CNC1=NC(=O)S/C1=C\C1CCN(Cc2ccc(C(F)(F)F)cc2C(F)(F)F)CC1 [Example 108, N^2-[(5Z)-5-({1-[2,4-bis(trifluoromethyl)benzyl]piperidin-4-yl}methylidene)-2-oxo-2,5-dihydro-1,3-thiazol-4-yl]-N,N-dimethylglycinamide]	89%	81%	T/C (%) (MDA-MB-231-luc cells; [3]): 45%
CC(C)(CO)CNC1=NC(=O)S/C1=C\C1CCN(Cc2ccc(C(F)(F)F)cc2C(F)(F)F)CC1 [Example 78, (5Z)-5-({1-[2,4-bis(trifluoromethyl)benzyl]piperidin-4-yl}methylidene)-4-[(3-hydroxy-2,2-dimethylpropyl)amino]-1,3-thiazol-2(5H)-one fumarate]	–	–	T/C (%) (MDA-MB-231-luc cells; [3]): 11%
C#CCNC1=NC(=O)S/C1=C\C1CCN(Cc2ccc(C(F)(F)F)cc2C(F)(F)F)C1 (stereo not drawn) [Example 69, (5Z)-5-({1-[2,4-bis(trifluoromethyl)benzyl]pyrrolidin-3-yl}methylidene)-4-(prop-2-yn-1-ylamino)-1,3-thiazol-2(5H)-one maleate]	67%	87%	–
O=C1N=C(NC2COC2)/C(=C/C2CCN(Cc3ccc(C(F)(F)F)cc3C(F)(F)F)CC2)S1 [Example 20, (5Z)-5-({1-[2,4-bis(trifluoromethyl)benzyl]piperidin-4-yl}methylidene)-4-(oxetan-3-ylamino)-1,3-thiazol-2(5H)-one]	105%	95%	–
C#CCNC1=NC(=O)S/C1=C\C1CCN(Cc2ccc(Cl)cc2C(F)(F)F)CC1 [Example 24, (5Z)-5-({1-[4-chloro-2-(trifluoromethyl)benzyl]piperidin-4-yl}methylidene)-4-(prop-2-yn-1-ylamino)-1,3-thiazol-2(5H)-one fumarate]	105%	92%	–
CC(C)(CO)CNC1=NC(=O)S/C1=C\C1CCN(Cc2ccc(C(F)(F)F)cc2C(F)(F)F)CC1 [Example 77, (5Z)-5-({1-[2,4-bis(trifluoromethyl)benzyl]piperidin-4-yl}methylidene)-4-[(3-hydroxy-2,2-dimethylpropyl)amino]-1,3-thiazol-2(5H)-one]	109%	82%	–
O=C1N=C(NCC2CC2)/C(=C/C2CCN(Cc3ccc(C(F)(F)F)cc3C(F)(F)F)CC2)S1 [Example 61, (5Z)-5-({1-[2,4-bis(trifluoromethyl)benzyl]piperidin-4-yl}methylidene)-4-[(cyclopropylmethyl)amino]-1,3-thiazol-2(5H)-one fumarate]	95%	90%	–
C#CCNC1=NC(=O)S/C1=C\C1CCN(Cc2ccc(C#N)cc2C(F)(F)F)CC1 [Example 40, 4-[(4-{(Z)-[2-oxo-4-(prop-2-yn-1-ylamino)-1,3-thiazol-5(2H)-ylidene]methyl}piperidin-1-yl)methyl]-3-(trifluoromethyl)benzonitrile]	73%	62%	–
CCN(CC)CCOCCNC1=NC(=O)S/C1=C\C1CCN(Cc2ccc(C(F)(F)F)cc2C(F)(F)F)CC1 [Example 47, (5Z)-5-({1-[2,4-bis(trifluoromethyl)benzyl]piperidin-4-yl}methylidene)-4-({2-[2-(diethylamino)ethoxy]ethyl}amino)-1,3-thiazol-2(5H)-one ditosylate]	108%	90%	–
